In patent publication US4659721A, “Alkanol derivatives, and pharmaceutical preparation containing these compounds” (Ludwig Heumann & Co. GmbH, priority 1984, dated 1987):

Columns and labels:
[1] = molecular target: T1, histamine-H2 receptors (Rattus norvegicus, UniProt P25102); assay: Gosh-Schild rat (Stimulator: histamine); format: in vivo; conditions: iv, i.V., read-out: ID50 (the source's name)
T1 construct: from tissue; host or cells: rat stomach, perfused (in vivo Ghosh-Schild preparation)
T1 sequence (P25102 whole entry, the tested form may be a part): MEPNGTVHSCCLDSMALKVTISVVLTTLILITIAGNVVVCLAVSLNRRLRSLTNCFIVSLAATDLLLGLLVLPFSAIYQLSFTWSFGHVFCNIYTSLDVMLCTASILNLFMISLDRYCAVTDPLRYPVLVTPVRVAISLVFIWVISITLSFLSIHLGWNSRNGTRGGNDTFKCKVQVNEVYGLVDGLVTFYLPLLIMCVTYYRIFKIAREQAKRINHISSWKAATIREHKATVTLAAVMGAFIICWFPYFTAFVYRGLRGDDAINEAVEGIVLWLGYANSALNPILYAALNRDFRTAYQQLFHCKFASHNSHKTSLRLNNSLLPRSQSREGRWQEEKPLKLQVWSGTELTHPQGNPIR
From the text: These compounds also antagonize the histamine action on the frequency of contraction of the isolated right atrium of the guinea-pig but have no effect on histamine induced contractions of isolated, smooth gastrointestinal muscle when these are produced by […].
Experimental model: Gosh-Schild rat

[2] = therapeutic use, several daily doses of tablets with dose units of 160 to 300 mg; cited from earlier work

Structure (SMILES) | ED50 [1] | half life [2]
CN/C(=N/CCSCc1nc[nH]c1C)NC#N [Cimetidine] | 1.4 µmol/kg | relatively short
CNC(=C[N+](=O)[O-])NCCSCc1ccc(CN(C)C)o1 [ranitidine] |  | relatively short
Nc1n[s+]([O-])nc1NCC(O)COCc1cccc(CN2CCCCC2)c1 (stereo not shown) [Example 1, 3-[2-Hydroxy-3-[3-(1-piperidylmethyl)-benzyloxy]propylamino]-4-amino-1,2,5-thiadiazole-1-oxide] | 0.075 µmol/kg | 
